Columns and labels:
S1P5 [1] = biological target: T1, S1P5 (Homo sapiens, UniProt Q9H228); assay: S1P5 antagonist test, Tango S1P5-bla U-2 OS cells; assay type: cell-based; conditions: S1P5 TANGO U-2 OS cell line
T1 construct: Tango fusion partner (protease site + GAL4-VP16 transcription factor); expressed in transfected cells; host or cells: Tango S1P5-bla U-2 OS cells
Method: (§1) Since AD2900 is a sphingolipid analogue with properties that resemble those of S1P, we intended to examine its ability to interact with the S1P receptors. To delineate whether AD2900 can function as an agonistic or antagonistic compound to any of the S1P receptors, we used a high-throughput screening cell-based assay, employing cell lines stably transfected with human S1P receptors 1, 2, 3, 4, or 5 [37]. In this experiment, a compound with an IC50 or EC50 value ≤10 μM for a certain S1P receptor is considered active as an antagonist or an agonist, respectively. The results illustrate that AD2900 acts as an antagonist to all S1P receptors (Table 1, Supplementary Figure 3). […] No agonist activation was evident.
(§2) The S1P1 agonist test and S1P2, S1P3, S1P4, and S1P5 agonist and antagonist tests were conducted as previously described using S1P1 CRE-bla CHO cells, S1P2 CRE-bla CHO cells, S1P3 NFAT-bla CHO cells, Tango™ S1P4 (EDG6)-bla U-2 OS cells, and Tango™ S1P5 ([…])-bla U-2 OS cells. The S1P1 antagonist assay was carried out according to the manufacturer’s instructions using a Tango™ S1P1 (EDG1)-bla U-2 OS Cell-Based Assay (Invitrogen, NY, USA).

S1P1 = S1P1 (Homo sapiens, UniProt P21453); assay: S1P1 antagonist assay, Tango S1P1 (EDG1)-bla U-2 OS cells; assay type: cell-based; design: Tango fusion partner (protease site + GAL4-VP16 transcription factor); host or cells: Tango S1P1 (EDG1)-bla U-2 OS cells; conditions: S1P1 TANGO U-2 OS cell line
S1P1, sequence (P21453 whole entry, the tested form may be a part): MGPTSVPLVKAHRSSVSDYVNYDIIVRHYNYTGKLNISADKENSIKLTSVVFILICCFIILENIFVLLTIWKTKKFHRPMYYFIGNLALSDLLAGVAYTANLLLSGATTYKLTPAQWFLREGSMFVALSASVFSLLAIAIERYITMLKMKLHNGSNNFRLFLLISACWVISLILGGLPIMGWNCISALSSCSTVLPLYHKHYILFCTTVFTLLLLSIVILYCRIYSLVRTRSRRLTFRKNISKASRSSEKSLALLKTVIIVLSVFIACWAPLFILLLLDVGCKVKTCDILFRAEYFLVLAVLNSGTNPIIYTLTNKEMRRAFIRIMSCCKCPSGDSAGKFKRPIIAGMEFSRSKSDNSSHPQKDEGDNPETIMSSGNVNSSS
Method: as §1, §2

S1P4 = biological target: T2, S1P4 (Homo sapiens, UniProt O95977); assay: S1P4 antagonist test, Tango S1P4 (EDG6)-bla U-2 OS cells; assay type: cell-based; conditions: S1P4 TANGO U-2 OS cell line
T2 construct: Tango fusion partner (protease site + GAL4-VP16 transcription factor); expressed in transfected cells; host or cells: Tango S1P4 (EDG6)-bla U-2 OS cells
T2 sequence (O95977 1-384): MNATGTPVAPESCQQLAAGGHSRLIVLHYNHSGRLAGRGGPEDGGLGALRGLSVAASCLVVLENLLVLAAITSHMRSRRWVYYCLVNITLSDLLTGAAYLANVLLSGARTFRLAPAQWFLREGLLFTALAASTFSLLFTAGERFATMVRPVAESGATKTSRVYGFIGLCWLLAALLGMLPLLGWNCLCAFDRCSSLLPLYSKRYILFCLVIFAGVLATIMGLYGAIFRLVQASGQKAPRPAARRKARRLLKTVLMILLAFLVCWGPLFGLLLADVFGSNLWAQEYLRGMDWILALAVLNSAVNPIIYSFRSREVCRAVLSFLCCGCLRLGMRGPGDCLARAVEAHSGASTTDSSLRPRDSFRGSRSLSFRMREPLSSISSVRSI
Method: as §1, §2

[2] = design: method as in unpublished data; conditions: previous studies; ref unpublished data; cited from earlier work
Molt4 = assay: XTT viability assay, Molt4; assay type: cell-based, human; conditions: 1-day treatment, compared with Jurkat (>10 μM)
Method: Figure 1 AD2900 inhibits human lymphocyte proliferation in allogeneic activation (A, B) The levels of proliferative response of human peripheral blood lymphocytes (PBMCs) after 1-day pretreatment with different concentrations of AD2900, AD2750, YZ138, YZ158, and YZ297 (A) or AD2900, FTY720, and SEW2871 (B) were tested by human allogeneic mixed lymphocyte reaction (MLR) assay, followed by a [3H] thymidine incorporation analysis. (C) Apoptosis of AD2900-treated activated PBMCs was tested by AnnexinV-propidium iodide (PI) FACS analysis following 1-day AD2900 pretreatment and MLR. All the samples were compared to the untreated PBMC control. (D) IFN-γ secretion from activated PBMCs was tested by ELISA following a 1-day AD2900 pretreatment in MLR. On the 5th day of hMLR, supernatants were collected and assayed for the level of IFN-γ. (E) Jurkat cell viability after a 1-day treatment with different concentrations of AD2900, FTY720, and SEW2871 was tested by XTT viability assay. (F) H9, CEM/C1, and Molt4 cell viability after a 1-day treatment with different concentrations of AD2900 was tested by XTT viability assay. Graphs summarize the results of at least three independent experiments. Results of Student’s t-test: *(P < 0.05, two-tailed test), ** (P < 0.01, two-tailed test), *** (P < 0.001, two-tailed test), **** (P < 0.0001, two-tailed test). […]

S1P5 [3] = biological target: T1, S1P5; assay: S1P5 agonist test, Tango S1P5-bla U-2 OS cells; assay type: cell-based; conditions: S1P5 TANGO U-2 OS cell line
Method: as §1, §2

[4] = design: method as in unpublished data; conditions: previous studies; ref unpublished data; cited from earlier work; remark: listed apart in the source

T1 sequence (Q9H228 whole entry, the tested form may be a part): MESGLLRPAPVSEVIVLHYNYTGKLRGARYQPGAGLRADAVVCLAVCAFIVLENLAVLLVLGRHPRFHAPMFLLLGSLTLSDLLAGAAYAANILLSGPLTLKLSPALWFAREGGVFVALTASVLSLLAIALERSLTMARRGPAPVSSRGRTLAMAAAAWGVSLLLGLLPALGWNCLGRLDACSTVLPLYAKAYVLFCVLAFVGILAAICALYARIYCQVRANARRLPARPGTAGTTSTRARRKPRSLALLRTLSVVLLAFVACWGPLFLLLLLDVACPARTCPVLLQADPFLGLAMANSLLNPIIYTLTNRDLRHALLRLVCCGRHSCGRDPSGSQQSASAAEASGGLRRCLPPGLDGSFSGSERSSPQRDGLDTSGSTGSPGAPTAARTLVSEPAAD

CCCCCCCCCCCCCCCCNC(CO)(CO)CO [AD2900]
IC50 (S1P5 [1]): 0.405 µM | IC50 (S1P1): 3.8 µM | IC50 (S1P4): 5.9 µM | stable at room temperature [2]: at least 2 years | cell viability, Molt4 (Molt4): reduced cell viability could be detected even at lower concentrations | EC50 (S1P5 [3]): > 50 µM | lethal dose 50% (LD50) [4]: above 100 mg/kg
